Experiments:
[1] = molar heat capacity at saturation pressure; conditions: Vacuum adiabatic calorimetry
[2] = for molar entropy: 101.33 kPa, Vacuum adiabatic calorimetry
[3] = Molar enthalpy of transition or fusion; conditions: Crystal; Adiabatic calorimetry

Oc1cccc2ccccc12 [1-naphthol]
Conditions	Triple point temperature [K]	molar entropy [J/K/mol]	molar heat capacity [J/K/mol]
[1], 4.908 K, Crystal	–	–	0.3991
[1], 5 K, Crystal	–	–	0.4074
[1], 5.887 K, Crystal	–	–	0.6735
[1], 6.773 K, Crystal	–	–	0.9894
[1], 7.696 K, Crystal	–	–	1.413
[1], 8.736 K, Crystal	–	–	1.995
[1], 9.852 K, Crystal	–	–	2.752
[1], 10 K, Crystal	–	–	2.86
[1], 11.02 K, Crystal	–	–	3.658
[1], 12.26 K, Crystal	–	–	4.664
[1], 13.57 K, Crystal	–	–	5.837
[1], 14.97 K, Crystal	–	–	7.2
[1], 16.55 K, Crystal	–	–	8.755
[1], 18.3 K, Crystal	–	–	10.52
[1], 20 K, Crystal	–	–	12.18
[1], 20.23 K, Crystal	–	–	12.41
[1], 22.38 K, Crystal	–	–	14.54
[1], 24.77 K, Crystal	–	–	16.86
[1], 27.44 K, Crystal	–	–	19.4
[1], 30 K, Crystal	–	–	21.7
[1], 30.38 K, Crystal	–	–	22.03
[1], 33.63 K, Crystal	–	–	24.81
[1], 37.26 K, Crystal	–	–	27.77
[1], 40 K, Crystal	–	–	29.84
[1], 41.28 K, Crystal	–	–	30.77
[1], 45.76 K, Crystal	–	–	34.06
[1], 50 K, Crystal	–	–	36.83
[1], 50.77 K, Crystal	–	–	37.31
[1], 51.97 K, Crystal	–	–	38.07
[1], 56.32 K, Crystal	–	–	40.7
[1], 56.46 K, Crystal	–	–	40.78
[1], 60 K, Crystal	–	–	42.91
[1], 61.85 K, Crystal	–	–	43.99
[1], 68.38 K, Crystal	–	–	47.41
[1], 70 K, Crystal	–	–	48.25
[1], 75.62 K, Crystal	–	–	51.08
[1], 80 K, Crystal	–	–	53.33
[1], 83.14 K, Crystal	–	–	54.91
[1], 90 K, Crystal	–	–	58.16
[1], 91.41 K, Crystal	–	–	58.81
[1], 100 K, Crystal	–	–	62.77
[1], 100.48 K, Crystal	–	–	62.99
[1], 110.08 K, Crystal	–	–	67.46
[1], 119.95 K, Crystal	–	–	72.21
[1], 120 K, Crystal	–	–	72.23
[1], 130.14 K, Crystal	–	–	77.14
[1], 140 K, Crystal	–	–	82.08
[1], 140.31 K, Crystal	–	–	82.24
[1], 150.42 K, Crystal	–	–	87.34
[1], 160 K, Crystal	–	–	92.43
[1], 160.43 K, Crystal	–	–	92.66
[1], 170.36 K, Crystal	–	–	98.04
[1], 180 K, Crystal	–	–	103.34
[1], 180.29 K, Crystal	–	–	103.5
[1], 190.33 K, Crystal	–	–	109.13
[1], 200 K, Crystal	–	–	114.64
[1], 200.45 K, Crystal	–	–	114.9
[1], 210.56 K, Crystal	–	–	120.76
[1], 220 K, Crystal	–	–	126.26
[1], 220.64 K, Crystal	–	–	126.63
[1], 230.69 K, Crystal	–	–	132.62
[1], 240 K, Crystal	–	–	138.13
[1], 240.71 K, Crystal	–	–	138.54
[1], 250.73 K, Crystal	–	–	144.61
[1], 260 K, Crystal	–	–	150.24
[1], 260.74 K, Crystal	–	–	150.69
[1], 270.62 K, Crystal	–	–	156.67
[1], 280 K, Crystal	–	–	162.4
[1], 280.51 K, Crystal	–	–	162.71
[1], 290.52 K, Crystal	–	–	168.83
[1], 298.15 K, Crystal	–	–	173.51
[1], 300 K, Crystal	–	–	174.64
[1], 300.53 K, Crystal	–	–	174.97
[1], 310.57 K, Crystal	–	–	180.81
[1], 320 K, Crystal	–	–	186.29
[1], 320.58 K, Crystal	–	–	186.63
[1], 331.02 K, Crystal	–	–	192.65
[1], 340 K, Crystal	–	–	197.95
[1], 341.47 K, Crystal	–	–	198.62
[1], 351.79 K, Crystal	–	–	205.33
[1], 360 K, Crystal	–	–	210.16
[1], 360.7 K, Crystal	–	–	210.52
[1], 368.49 K, Crystal	–	–	215.56
[1], 368.49 K, Liquid	–	–	279.12
[1], 375.44 K, Liquid	–	–	281.15
[1], 375.53 K, Liquid	–	–	281.2
[1], 380 K, Liquid	–	–	282.47
[1], 382.75 K, Liquid	–	–	283.25
[1], 389.88 K, Liquid	–	–	285.37
[1], 400 K, Liquid	–	–	288.35
[1], 405.81 K, Liquid	–	–	290.05
[1], 420 K, Liquid	–	–	294.27
[1], 423.59 K, Liquid	–	–	295.34
[1], 438.9 K, Liquid	–	–	299.86
[1], 440 K, Liquid	–	–	300.19
[2], 5 K, Crystal	–	0.1164	–
[2], 10 K, Crystal	–	1.006	–
[2], 20 K, Crystal	–	5.712	–
[2], 30 K, Crystal	–	12.49	–
[2], 40 K, Crystal	–	19.88	–
[2], 50 K, Crystal	–	27.32	–
[2], 60 K, Crystal	–	34.57	–
[2], 70 K, Crystal	–	41.6	–
[2], 80 K, Crystal	–	48.37	–
[2], 90 K, Crystal	–	54.94	–
[2], 100 K, Crystal	–	61.3	–
[2], 120 K, Crystal	–	73.57	–
[2], 140 K, Crystal	–	85.45	–
[2], 160 K, Crystal	–	97.07	–
[2], 180 K, Crystal	–	108.59	–
[2], 200 K, Crystal	–	120.05	–
[2], 220 K, Crystal	–	131.53	–
[2], 240 K, Crystal	–	143.02	–
[2], 260 K, Crystal	–	154.55	–
[2], 280 K, Crystal	–	166.13	–
[2], 298.15 K, Crystal	–	176.67	–
[2], 300 K, Crystal	–	177.75	–
[2], 320 K, Crystal	–	189.4	–
[2], 340 K, Crystal	–	201.04	–
[2], 360 K, Crystal	–	212.69	–
[2], 368.49 K, Crystal	–	217.66	–
[2], 368.49 K, Liquid	–	283.48	–
[2], 380 K, Liquid	–	292.12	–
[2], 400 K, Liquid	–	306.76	–
[2], 420 K, Liquid	–	320.97	–
[2], 440 K, Liquid	–	334.8	–
[2], Crystal, Adiabatic calorimetry	368.49	–	–

[2], Liquid
Conditions	mass density [kg/m3]	vapor or sublimation pressure [kPa]
369.98 K, Inclined piston gauge	–	0.1033
373.12 K, Inclined piston gauge	–	0.1259
374.97 K, Inclined piston gauge	–	0.1406
383.13 K, Inclined piston gauge	–	0.2221
384.98 K, Inclined piston gauge	–	0.2455
393 K, Pycnometric method	1063	–
393.13 K, Inclined piston gauge	–	0.3779
394.98 K, Inclined piston gauge	–	0.4163
403.12 K, Inclined piston gauge	–	0.6229
404.96 K, Inclined piston gauge	–	0.6815
408.13 K, Inclined piston gauge	–	0.7902
413.12 K, Inclined piston gauge	–	0.9955
414.97 K, Inclined piston gauge	–	1.085
418.12 K, Inclined piston gauge	–	1.249
423.12 K, Inclined piston gauge	–	1.551
424.96 K, Inclined piston gauge	–	1.68
429.2 K, Twin ebulliometer	–	2
429.96 K, Inclined piston gauge	–	2.071
434.97 K, Inclined piston gauge	–	2.537
436.27 K, Twin ebulliometer	–	2.666
439.96 K, Inclined piston gauge	–	3.091
446.77 K, Twin ebulliometer	–	4
454.6 K, Twin ebulliometer	–	5.333
466.26 K, Twin ebulliometer	–	7.999
475.01 K, Twin ebulliometer	–	10.67
482.08 K, Twin ebulliometer	–	13.33
489.42 K, Twin ebulliometer	–	16.66
495.53 K, Twin ebulliometer	–	19.93
503.55 K, Twin ebulliometer	–	25.02
511.63 K, Twin ebulliometer	–	31.17
519.75 K, Twin ebulliometer	–	38.56
527.93 K, Twin ebulliometer	–	47.37
536.16 K, Twin ebulliometer	–	57.81
544.44 K, Twin ebulliometer	–	70.11
552.77 K, Twin ebulliometer	–	84.53
561.14 K, Twin ebulliometer	–	101.32
569.59 K, Twin ebulliometer	–	120.78

Conditions	Molar enthalpy of transition or fusion [kcal/mol]
[3]	5.798

From the NIST ThermoML archive (doi:10.1016/j.jct.2015.02.008)
